Measurements reported in US20180008587A1, “THIOHYDANTOIN ANDROGEN RECEPTOR ANTAGONISTS FOR THE TREATMENT OF CANCER” (Jaressen Pharmaceutica NV, priority 2016, published 2018).
Residue numbers refer to the chain shown, from its start. pEC50: −log10 of the molar value. Read-outs that look alike come from different tables or passages of the source.

Columns and labels:
Assay type in all cases: cell-based
[1] = target: T1, F876L mutant Androgen Receptor (AR-F876L) (Homo sapiens, UniProt P10275, F877L); test: LNCaP-AR-F876L AG reporter assay (ARE firefly luciferase, agonist mode); details: for EC50: agonist mode, −Log10(EC50 [Molar]), read-out: LNCaP-AR-F876L AG pEC50 (converted); for Emax: read-out: LNCaP-AR-F876L AG MAX % Stim
T1 construct: expressed in transfected cells; host or cells: LNCaP (LNCaP F876L)
T1 sequence (P10275 1-920 F877L): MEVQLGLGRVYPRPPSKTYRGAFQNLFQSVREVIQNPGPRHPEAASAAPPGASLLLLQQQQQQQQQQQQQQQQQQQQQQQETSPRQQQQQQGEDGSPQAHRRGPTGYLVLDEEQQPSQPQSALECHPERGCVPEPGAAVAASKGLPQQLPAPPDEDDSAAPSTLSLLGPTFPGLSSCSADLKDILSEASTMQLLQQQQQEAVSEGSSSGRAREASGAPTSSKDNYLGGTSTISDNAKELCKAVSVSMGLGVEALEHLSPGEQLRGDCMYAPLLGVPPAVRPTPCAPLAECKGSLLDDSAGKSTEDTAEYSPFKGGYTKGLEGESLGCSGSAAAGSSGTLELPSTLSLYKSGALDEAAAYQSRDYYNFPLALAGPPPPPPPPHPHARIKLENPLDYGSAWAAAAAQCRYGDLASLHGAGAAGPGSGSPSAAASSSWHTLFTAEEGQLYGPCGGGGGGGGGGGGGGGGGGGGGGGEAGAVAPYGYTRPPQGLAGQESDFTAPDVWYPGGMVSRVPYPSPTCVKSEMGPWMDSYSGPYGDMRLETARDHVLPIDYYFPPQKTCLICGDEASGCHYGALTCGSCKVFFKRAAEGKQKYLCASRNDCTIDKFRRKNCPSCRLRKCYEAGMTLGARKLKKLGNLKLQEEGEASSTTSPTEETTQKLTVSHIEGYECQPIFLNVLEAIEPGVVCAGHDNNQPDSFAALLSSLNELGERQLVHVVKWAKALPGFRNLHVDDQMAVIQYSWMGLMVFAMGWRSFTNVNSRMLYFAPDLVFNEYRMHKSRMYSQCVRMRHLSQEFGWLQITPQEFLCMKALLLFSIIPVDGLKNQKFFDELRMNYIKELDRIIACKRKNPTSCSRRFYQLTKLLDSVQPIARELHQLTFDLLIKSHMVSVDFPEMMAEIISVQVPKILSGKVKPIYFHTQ
Outline: (§1)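 LNCaP stable pooled lines expressing ARE-firefly luciferase, in charcoal-stripped serum medium, were exposed to compounds; antagonist mode used agonist at 400 pM (WT) or 600 pM (F876L).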

[2] = target: T2, wild-type Androgen Receptor (AR-wt) (Homo sapiens, UniProt P10275); test: LNCaP-AR-wt AG reporter assay (ARE firefly luciferase, agonist mode); details: for EC50: agonist mode, −Log10(EC50 [Molar]), read-out: LNCaP-AR-wt AG pEC50 (converted); for Emax: read-out: LNCaP-AR-wt AG MAX % Stim
T2 construct: expressed in transfected cells; host or cells: LNCaP (LNCaP AR (cs))
T2 sequence (P10275 1-920): T1 sequence (P10275 1-920 F877L) with L877F
Outline: as §1

[3] = target: T2, wild-type Androgen Receptor (AR-wt); test: LNCaP-AR-wt ANT reporter assay (ARE firefly luciferase, antagonist mode); details: for IC50: antagonist mode, 400 pM R-1881 challenge, −Log10(IC50 [Molar]), read-out: LNCaP-AR-wt ANT pIC50 (converted); for Emax: read-out: LNCaP-AR-wt ANT MAX % Inh
Outline: as §1

[4] = target: T1, F876L mutant Androgen Receptor (AR-F876L); test: LNCaP-AR-F876L ANT reporter assay (ARE firefly luciferase, antagonist mode); details: for Emax: read-out: LNCaP-AR-F876L ANT MAX % Inh; for IC50: read-out: LNCaP-AR-F876L ANT pIC50 (converted)
Outline: as §1

[5] = maximum % stimulation (agonist response) over tested concentration range
[6] = maximum % inhibition of R1881 control response over tested concentration range

Structure (SMILES) | EC50 [1] [µM] | Emax [1, 5] [%] | EC50 [2] [µM] | Emax [2, 5] [%] | IC50 [3] [µM] | Emax [3, 6] [%] | Emax [4, 6] [%] | IC50 [4] [µM] | pEC50 [1] | Emax [1] [%] | pEC50 [2] | Emax [2] [%] | Emax [3] [%] | Emax [4] [%]
N#Cc1ncc(N2C(=O)C3(CCC3)N(c3ccc(C(=O)NCc4ccccc4Cl)c(F)c3)C2=S)cc1C(F)(F)F [Cpd 31, N-[(2-chlorophenyl)methyl]-4-[6-[6-cyano-5-(trifluoromethyl)-3-pyridyl]-5-oxo-7-thioxo-6,8-diazaspiro[3.4]octan-8-yl]-2-fluoro-benzamide] |  |  |  |  | 2.24 |  |  | 2.24 | < 4.82 | 0.3 | < 4.82 | 0.2 | 98.6 | 91
Cc1cc(N2C(=O)C3(CCC3)N(c3ccc(OCCc4ccccn4)c(F)c3)C2=S)cnc1C#N [Cpd 32, 5-[8-[3-fluoro-4-[2-(2-pyridyl)ethoxy]phenyl]-5-oxo-7-thioxo-6,8-diazaspiro[3.4]octan-6-yl]-3-methyl-pyridine-2-carbonitrile] | > 15.1 | 0.1 | > 15.1 | 0.7 | 0.49 | 102 | 101 | 0.282 |  |  |  |  |  | 
Cc1cc(N2C(=O)C3(CCC3)N(c3ccc(C(=O)NCc4cccs4)c(F)c3)C2=S)cnc1C#N [Cpd 33, 4-[6-(6-cyano-5-methyl-3-pyridyl)-5-oxo-7-thioxo-6,8-diazaspiro[3.4]octan-8-yl]-2-fluoro-N-(2-thienylmethyl)benzamide] | > 15.1 | 0.3 | > 15.1 | 0.3 | 1.23 | 99.6 | 100 | 0.49 |  |  |  |  |  | 
N#Cc1ncc(N2C(=O)C3(CCC3)N(c3cccc4ccccc34)C2=S)cc1C(F)(F)F [Cpd 34, 5-[8-(1-naphthyl)-5-oxo-7-thioxo-6,8-diazaspiro[3.4]octan-6-yl]-3-(trifluoromethyl)pyridine-2-carbonitrile] |  |  |  |  | 0.562 |  |  | 0.617 | < 4.82 | 0.2 | < 4.82 | -0.1 | 99.7 | 99.4
N#Cc1ncc(N2C(=O)C3(CCC3)N(c3ccc(C(=O)NCc4ccccc4)c(F)c3)C2=S)cc1C(F)(F)F [Cpd 36, N-benzyl-4-[6-[6-cyano-5-(trifluoromethyl)-3-pyridyl]-5-oxo-7-thioxo-6,8-diazaspiro[3.4]octan-8-yl]-2-fluoro-benzamide] |  |  |  |  | 1.48 |  |  | 0.851 | < 4.82 | 0.3 | < 4.82 | 0.9 | 96.1 | 91.3
CNC(=O)c1ccc(N2C(=S)N(c3cnc(C#N)c(C(F)F)c3)C(=O)C23CCC3)cc1F [Cpd 39, 4-[6-[6-cyano-5-(difluoromethyl)-3-pyridyl]-5-oxo-7-thioxo-6,8-diazaspiro[3.4]octan-8-yl]-2-fluoro-N-methyl-benzamide] | > 15.1 | 0.3 | > 15.1 | 0.2 | 1.82 | 97.2 | 94.4 | 1.55 |  |  |  |  |  | 
N#Cc1ncc(N2C(=O)C3(CCC3)N(c3ccc(C(=O)NCc4ccccn4)c(F)c3)C2=S)cc1C(F)(F)F [Cpd 44, 4-[6-[6-cyano-5-(trifluoromethyl)-3-pyridyl]-5-oxo-7-thioxo-6,8-diazaspiro[3.4]octan-8-yl]-2-fluoro-N-(2-pyridylmethyl)benzamide] |  |  |  |  | 0.195 |  |  | 0.178 | < 4.82 | 0 | < 4.82 | -0.2 | 103 | 101
Cc1cc(N2C(=O)C3(CCC3)N(c3ccc(C(=O)Nc4ccnn4C)c(F)c3)C2=S)cnc1C#N [Cpd 45, 4-[6-(6-cyano-5-methyl-3-pyridyl)-5-oxo-7-thioxo-6,8-diazaspiro[3.4]octan-8-yl]-2-fluoro-N-(2-methylpyrazol-3-yl)benzamide] | > 15.1 | 0.1 | > 15.1 | 0.2 | 1.02 | 101 | 100 | 0.437 |  |  |  |  |  | 

Further lines, with some results ahead:

EC50 [1] [µM] | Emax [1, 5] [%] | EC50 [2] [µM] | Emax [2, 5] [%] | IC50 [3] [µM] | Emax [3, 6] [%] | Emax [4, 6] [%] | IC50 [4] [µM] | Structure (SMILES) | pEC50 [1] | Emax [1] [%] | pEC50 [2] | Emax [2] [%] | Emax [3] [%] | Emax [4] [%]
> 15.1 | 0.1 | > 15.1 | 0.1 | 0.331 | 100 | 98.8 | 0.162 | CN1CCN(Cc2ccc(N3C(=S)N(c4cnc(C#N)c(C(F)(F)F)c4)C(=O)C34CCC4)cc2)CC1 [Cpd 30, 5-[8-[4-[(4-methylpiperazin-1-yl)methyl]phenyl]-5-oxo-7-thioxo-6,8-diazaspiro[3.4]octan-6-yl]-3-(trifluoromethyl)pyridine-2-carbonitrile] |  |  |  |  |  | 
> 15.1 | 0.3 | > 15.1 | 0.3 | 1.2 | 99.3 | 96.5 | 0.398 | N#Cc1ncc(N2C(=O)C3(CCC3)N(c3ccc(C(=O)NCCCN4CCCC4=O)c(F)c3)C2=S)cc1C(F)(F)F [Cpd 37, 4-[6-[6-cyano-5-(trifluoromethyl)-3-pyridyl]-5-oxo-7-thioxo-6,8-diazaspiro[3.4]octan-8-yl]-2-fluoro-N-[3-(2-oxopyrrolidin-1-yl)propyl]benzamide] |  |  |  |  |  | 
> 15.1 |  | > 15.1 |  | 0.398 | 100 | 99 | 0.229 | N#Cc1ncc(N2C(=O)C3(CCC3)N(c3ccc(OC(F)(F)F)cc3)C2=S)cc1C(F)(F)F [Cpd 38, 5-[5-oxo-7-thioxo-8-[4-(trifluoromethoxy)phenyl]-6,8-diazaspiro[3.4]octan-6-yl]-3-(trifluoromethyl)pyridine-2-carbonitrile] |  | 0.3 |  | 1.2 |  | 
> 15.1 | 0.3 | > 15.1 | -0.2 | 0.282 | 102 | 102 | 0.186 | CCOC(=O)CNC(=O)c1ccc(N2C(=S)N(c3cnc(C#N)c(C(F)(F)F)c3)C(=O)C23CCC3)cc1F [Cpd 41, ethyl 2-[[4-[6-[6-cyano-5-(trifluoromethyl)-3-pyridyl]-5-oxo-7-thioxo-6,8-diazaspiro[3.4]octan-8-yl]-2-fluoro-benzoyl]amino]acetate] |  |  |  |  |  | 
